Test results published in patent publication US5486597A, “Tetrapeptide derivatives and analogues” (James Black Foundation Limited, priority 1990, dated 1996).
Non-standard residues stand in square brackets, D forms with d. Residues, ends and D or L forms follow the SMILES beside them. *: point of attachment. 2Nal = N[C@@H](Cc1ccc2ccccc2c1)C(=O)O; Boc = CC(C)(C)OC(=O)*

Assays:
Assay type in all cases: cell-based
gastrin receptor [1] = target: T1, gastrin receptor (Mus musculus, UniProt P56481); assay: mouse stomach assay for gastrin activity (isolated stomach, acid secretion); settings: for Acid seretion at 10^-5 M test compound, relative to pentagastrin (%): mouse stomach, NS = not significant
T1 construct: assayed for gastrin activity using the mouse stomach assay; from tissue; host or cells: isolated mouse stomach
T1 sequence (P56481 1-453): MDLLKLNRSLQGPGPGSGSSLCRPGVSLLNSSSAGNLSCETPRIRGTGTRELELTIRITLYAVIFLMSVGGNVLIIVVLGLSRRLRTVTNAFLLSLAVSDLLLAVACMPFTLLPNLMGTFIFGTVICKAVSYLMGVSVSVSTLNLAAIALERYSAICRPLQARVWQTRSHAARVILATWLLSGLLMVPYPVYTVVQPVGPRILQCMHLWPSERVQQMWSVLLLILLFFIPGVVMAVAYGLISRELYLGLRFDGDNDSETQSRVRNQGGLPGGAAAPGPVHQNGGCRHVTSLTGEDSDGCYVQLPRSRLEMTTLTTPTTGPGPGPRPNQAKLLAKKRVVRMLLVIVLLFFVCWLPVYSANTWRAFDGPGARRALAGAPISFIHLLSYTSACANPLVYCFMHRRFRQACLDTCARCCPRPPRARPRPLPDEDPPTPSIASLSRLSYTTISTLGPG
Protocol: The compounds were assayed for gastrin activity using the mouse stomach assay as described by Black, J. W. and Shankley, N. P., Br. J. Pharmacol., 86, 571-579, (1985), and also in the guinea-pig fundus assay, as follows: […]

[2] = target: T2, cholecystokinin receptors (Cavia porcellus, UniProt Q63931); assay: CCK-antagonist activity in isolated guinea-pig gall-bladder strip preparations; settings: guinea-pig gall-bladder strips; CCK-8 as agonist; test compound incubated for 60 minutes; standard errors less than 5%
T2 construct: Isolated, strip preparations were prepared from gall-bladders removed from male Dunkin-Hartley guinea-pigs; from tissue; host or cells: guinea-pig gall-bladder strips
T2 sequence (Q63931 1-430): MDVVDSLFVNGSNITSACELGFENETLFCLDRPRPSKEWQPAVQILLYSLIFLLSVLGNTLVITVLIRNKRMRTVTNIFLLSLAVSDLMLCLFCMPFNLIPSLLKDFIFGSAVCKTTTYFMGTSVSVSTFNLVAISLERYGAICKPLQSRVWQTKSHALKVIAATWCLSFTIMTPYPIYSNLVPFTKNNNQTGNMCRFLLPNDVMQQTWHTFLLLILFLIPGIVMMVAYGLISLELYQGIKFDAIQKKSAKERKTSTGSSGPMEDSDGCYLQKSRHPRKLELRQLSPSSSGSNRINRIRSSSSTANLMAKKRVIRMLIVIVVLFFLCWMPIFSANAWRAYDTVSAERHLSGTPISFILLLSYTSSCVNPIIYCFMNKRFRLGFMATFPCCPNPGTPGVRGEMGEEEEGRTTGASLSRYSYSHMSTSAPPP
Outline: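 Male Dunkin-Hartley guinea-pig gall-bladder strips under 1 g isometric tension in Krebs (0.5 mM Ca²⁺), 37° C, 95% O2/5% CO2, stabilised 90 min. Cumulative CCK-8 concentration-effect curves without and with test compound (60 min preincubation); antagonism expressed as […] by modified competitive analysis.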

gastrin receptor [3] = target: T3, gastrin receptor (Cavia porcellus, UniProt H0VZC5); assay: guinea-pig fundus assay for gastrin activity (stomach muscle strips); settings: 10^-8 M devazepide present, 60 minute equilibration, agonist e.g. pentagastrin, standard errors less than 5%
T3 construct: Strips of muscle (approximately 2.5 cm by 1 cm) are removed from the proximal area of the stomach; from tissue; host or cells: guinea-pig proximal stomach (fundus) muscle strips
T3 sequence (H0VZC5 1-426): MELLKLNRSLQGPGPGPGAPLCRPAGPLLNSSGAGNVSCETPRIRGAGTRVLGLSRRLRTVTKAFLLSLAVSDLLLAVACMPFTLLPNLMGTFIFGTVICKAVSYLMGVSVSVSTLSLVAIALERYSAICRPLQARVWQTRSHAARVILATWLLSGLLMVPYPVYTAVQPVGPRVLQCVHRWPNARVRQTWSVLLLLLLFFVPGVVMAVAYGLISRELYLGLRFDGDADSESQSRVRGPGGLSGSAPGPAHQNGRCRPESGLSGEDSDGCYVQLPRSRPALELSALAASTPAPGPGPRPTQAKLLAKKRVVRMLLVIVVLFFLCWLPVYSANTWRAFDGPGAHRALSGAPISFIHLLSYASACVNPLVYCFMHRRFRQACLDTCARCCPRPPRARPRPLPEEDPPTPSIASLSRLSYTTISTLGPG
Outline: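 Proximal stomach muscle strips from male Dunkin-Hartley guinea-pigs were mounted on isotonic transducers at 0.35 g in gassed Krebs containing 10^-8 M devazepide to block CCK receptors, with 10 mM KCl added. Test compounds were equilibrated 60 min before cumulative pentagastrin dose-response curves were run.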

[4] = isolated mouse stomach assay, gastrin antagonism, standard errors less than 5%

| Kb (gastrin receptor [1]; isolated mouse stomach assay, gastrin antagonism, standard errors less than 5%, read-out: pKB mouse stomach (converted)) [µM] | Kb [2] [µM] | Kb (gastrin receptor [3]) [µM] | SMILES | pKB mouse stomach (gastrin receptor [1]; [4]) | Acid seretion at 10^-5 M test compound, relative to pentagastrin (%) (gastrin receptor [1]) | pKB [2] | pKB (gastrin receptor [3]) |
| --- | --- | --- | --- | --- | --- | --- | --- |
| – | – | – | COc1ccccc1CCNC(=O)[C@H](CC(=O)O)NC(=O)[C@H](Cc1ccc2ccccc2c1)NC(=O)[C@H](Cc1c[nH]c2ccccc12)NC(=O)OC(C)(C)C [Example 40, N-t-Butyloxycarbonyl-L-tryptophyl-L-3-(2-naphthyl)alanyl-L-aspartyl-2-methoxyphenethylamide] | 5.2 | 22 | 7.1 | 5.8 |
| – | – | – | COc1cccc(CCNC(=O)[C@H](CC(=O)O)NC(=O)[C@H](Cc2ccc3ccccc3c2)NC(=O)[C@H](Cc2c[nH]c3ccccc23)NC(=O)OC(C)(C)C)c1 [Example 56, N-t-Butyloxycarbonyl-L-tryptophyl-L-3-(2-naphthyl)alanyl-L-aspartyl-3-methoxyphenethylamide] | 5.6 | – | 7.2 | 5.5 |
| 0.631 | 5.01 | 3.16 | CC(C)(C)OC(=O)N[C@@H](Cc1c[nH]c2ccccc12)C(=O)N[C@@H](Cc1ccc2ccccc2c1)C(=O)N[C@@H](CC(=O)O)C(=O)N[C@@H](Cc1ccccc1)C(N)=O [Example 1, N-t-Butyloxycarbonyl-L-tryptophyl-L-3-(2-naphthyl)alanyl-L-aspartyl-L-phenylalaninamide] (Boc-W[2Nal]DF-NH2) | – | 65 | – | – |
